From patent US5830672A, “Elisa kit for the rapid determination of N-acetyltransferase (NAT2) phenotypes” (priority 1996, dated 1998)

Columns and labels:
AAMU-Ab = assay: Competitive antigen ELISA, cross-reactivity of AAMU-Ab; type: binding, rabbit; conditions: for % Cross-Reaction AAMU-Ab: 0 = absence of inhibition or inhibition no higher than 40% at highest concentration tested (5 × 10^-3 M)
Procedure: (§1) Four mature females New Zealand white rabbits (Charles River Canada, St-Constant, Que., Canada) were used for antibody production. The protocol employed in this study was approved by the McGill University Animal Care Committee in accordance with the guidelines from the Canadian Council on Animal Care. An isotonic saline solution (0.6 mL) containing […] of BSA conjugated antigen was emulsified with 0.6 mL of a complete Freund's adjuvant. 0.5 mL of the emulsion (100 mg of antigen) was injected per rabbit intramuscularly or subcutaneously. Rabbits were subsequently boosted at intervals of three weeks with 50 mg of antigen emulsified in incomplete Freund's adjuvant. Blood was collected by venipuncture of the ear 10-14 days after boosting. Antisera were stores at 4° C. in the presence of 0.01% sodium azide. Buffers and water without additives were filtered through millipore filters and kept for 1 week. BSA, antibodies, Tween™ 20 and horse radish peroxidase conjugates were added to these buffers and water just prior to use. Urine samples were usually collected 4 hours after drinking a cup of coffee (instant or brewed with approximately 100 mg of caffeine per cup) and stored at -80° C. They were diluted 10 times with sodium phosphate buffer (620 mosm, pH 7.50) and were subsequently diluted with water to give concentrations of AAMU and 1X no higher than 3×10^-6 M in the ELISA. All the pipettings were done with an eight-channel pipette, except those of the antibody and sample solutions. Starting with the last well, 100 μL of a carbonate buffer (100 mM, pH 9.6) containing 2.5 μg mL^-1 antibodies was pipetted. […] After the initial wash, unoccupied sites were blocked by incubation for 90 min. at room temperature with 100 μL TPB containing 3% BSA. The wells were washed four times with 100 μL TPB. […] AAMU or 1X, 2×10^-4 to 2×10^-8 M) or sample in duplicate. The microplate was gently shaken with an orbital shaker at room temperature for 3-4 hours. […] To the washed plate was added 150 μL of a substrate buffer composed of citric acid (25 mM) and sodium phosphate dibasic buffer (50 mM, pH 5.0) containing 0.06% hydrogen peroxide and 0.04% o-phenylenediamine hydrochloride. […] Buffers and water without additives were filtered through millipore filters and kept for 1 week. BSA, antibodies, Tween™ 20 and horse radish peroxidase conjugates were added to these buffers and water just prior to use. Urine samples were usually collected 4 hours after drinking a cup of coffee (instant or brewed with approximately 100 mg of caffeine per cup) and stored at -80° C. They were diluted 10 times with sodium phosphate buffer (620 mosm, pH 7.50) and were subsequently diluted with water to give concentrations of AAMU and 1X no higher than 3×10^-6 M in the ELISA. All the pipettings were done with an eight-channel pipette, except those of the antibody and sample solutions. Starting with the last well, 100 μL of a carbonate buffer (100 mM, pH 9.6) containing 2.5 μg mL^-1 antibodies was pipetted. […] After the initial wash, unoccupied sites were blocked by incubation for 90 min. at room temperature with 100 μL TPB containing 3% BSA. The wells were washed four times with 100 μL TPB. […] AAMU or 1X, 2×10^-4 to 2×10^-8 M) or sample in duplicate. The microplate was gently shaken with an orbital shaker at room temperature for 3-4 hours. […] To the washed plate was added 150 μL of a substrate buffer composed of citric acid (25 mM) and sodium phosphate dibasic buffer (50 mM, pH 5.0) containing 0.06% hydrogen peroxide and 0.04% o-phenylenediamine hydrochloride. […] Each curve represents triplicate determinations in a single run. The error bars represent standard deviations. For data point with no error bars, the error bars are less the size of the symbol. […] The cross reactivities of AAMU-Ab and 1X-Ab were tested using a wide variety of caffeine metabolites and structural analogs (Table 1 below).

1X-Ab = assay: Competitive antigen ELISA, cross-reactivity of 1X-Ab; type: binding, rabbit; conditions: for % Cross-Reaction 1X-Ab: 0 = absence of inhibition or inhibition no higher than 40% at highest concentration tested (5 × 10^-3 M)
Procedure: as §1

[1] = tested on: N-acetyltransferase (NAT2); conditions: rapid acetylators at greater risk of severe toxicity; cited from earlier work

O=c1[nH]cnc2nc[nH]c12 [Hypoxanthine]
% Cross-Reaction AAMU-Ab (AAMU-Ab): 0%
% Cross-Reaction 1X-Ab (1X-Ab): 0%

Cn1c(=O)[nH]c2ncn(C)c2c1=O [1,7-Dimethyl Xanthine (Paraxanthine), 1,7-Dimethyl Xanthine]
% Cross-Reaction AAMU-Ab (AAMU-Ab): 0%
% Cross-Reaction 1X-Ab (1X-Ab): 0.5%

O=c1[nH]c(=O)c2[nH]c(=O)[nH]c2[nH]1 [Uric acid]
% Cross-Reaction AAMU-Ab (AAMU-Ab): 0%
% Cross-Reaction 1X-Ab (1X-Ab): 0%

Cn1c(=O)[nH]c2[nH]c(=O)[nH]c2c1=O [1-Methyluric acid]
% Cross-Reaction AAMU-Ab (AAMU-Ab): 0%
% Cross-Reaction 1X-Ab (1X-Ab): 11%

O=c1[nH]c(=O)c2[nH]cnc2[nH]1 [Xanthine]
% Cross-Reaction AAMU-Ab (AAMU-Ab): 0%
% Cross-Reaction 1X-Ab (1X-Ab): 0%

Cn1cnc2c1c(=O)[nH]c(=O)n2C [3,7-Dimethyl Xanthine (Theobromine), 3,7-Dimethyl Xanthine]
% Cross-Reaction AAMU-Ab (AAMU-Ab): 0%
% Cross-Reaction 1X-Ab (1X-Ab): 0%

Cn1cnc2[nH]c(=O)[nH]c(=O)c21 [7-Methyl Xanthine]
% Cross-Reaction AAMU-Ab (AAMU-Ab): 0%
% Cross-Reaction 1X-Ab (1X-Ab): 0%

Cn1c(=O)[nH]c2[nH]c(=O)n(C)c2c1=O [1,7-Dimethyluric acid]
% Cross-Reaction AAMU-Ab (AAMU-Ab): 0%
% Cross-Reaction 1X-Ab (1X-Ab): 0%

Cc1nc2[nH]c(=O)[nH]c(=O)c2[nH]1 [8-Methyl Xanthine]
% Cross-Reaction AAMU-Ab (AAMU-Ab): 0%
% Cross-Reaction 1X-Ab (1X-Ab): 0%

Nc1nc2nc[nH]c2c(=O)[nH]1 [Guanine]
% Cross-Reaction AAMU-Ab (AAMU-Ab): 0%
% Cross-Reaction 1X-Ab (1X-Ab): 0%

Cn1c(=O)c2c(ncn2C)n(C)c1=O [1,3,7-Trimethyl Xanthine (Caffeine), 1,3,7-Trimethyl Xanthine]
% Cross-Reaction AAMU-Ab (AAMU-Ab): 0%
% Cross-Reaction 1X-Ab (1X-Ab): 0%

CC(=O)Nc1c(N)n(C)c(=O)n(C)c1=O [5-Acetamino-6-amino-1,3-dimethyluracil]
% Cross-Reaction AAMU-Ab (AAMU-Ab): 0%
% Cross-Reaction 1X-Ab (1X-Ab): 0%

O=c1cc[nH]c(=O)[nH]1 [Uracil]
% Cross-Reaction AAMU-Ab (AAMU-Ab): 0%
% Cross-Reaction 1X-Ab (1X-Ab): 0%

CC(=O)Nc1c(N)[nH]c(=O)[nH]c1=O [5-Acetamino-6-amino-uracil]
% Cross-Reaction AAMU-Ab (AAMU-Ab): 0.6%
% Cross-Reaction 1X-Ab (1X-Ab): 0%

Cn1c(=O)[nH]c(=O)c2[nH]cnc21 [3-Methyl Xanthine]
% Cross-Reaction AAMU-Ab (AAMU-Ab): 0%
% Cross-Reaction 1X-Ab (1X-Ab): 0%

Cn1c(=O)c2[nH]cnc2n(C)c1=O [1,3-Dimethyl Xanthine (Theophylline), 1,3-Dimethyl Xanthine]
% Cross-Reaction AAMU-Ab (AAMU-Ab): 0%
% Cross-Reaction 1X-Ab (1X-Ab): 0.2%

Cn1c(=O)[nH]c2nc[nH]c2c1=O [1-Methyl Xanthine (1X), 1-Methyl Xanthine]
% Cross-Reaction AAMU-Ab (AAMU-Ab): 0%
% Cross-Reaction 1X-Ab (1X-Ab): 100%
IC50 (1X-Ab; 1X-Ab, read-out: concentration required for 50% inhibition in the competitive antigen ELISA): 10 µM

CC(=O)Nc1c(N)[nH]c(=O)n(C)c1=O
% Cross-Reaction AAMU-Ab (AAMU-Ab): 100%
IC50 (AAMU-Ab; AAMU-Ab, read-out: concentration required for 50% inhibition in the competitive antigen ELISA): 1.5 µM
% Cross-Reaction 1X-Ab (1X-Ab): 0%

CN(C)CCN1C(=O)c2cccc3cc(N)cc(c23)C1=O [amonafide]
correlation between toxicity and acetylator phenotype [1]: direct correlation between toxicity and the acetylator phenotype
